{"source": "patent US11597708B2", "about": "“Inhibitors of heat shock factors and uses thereof” (HSF Pharmaceuticals SA, priority 2016, dated 2023)", "key": {"HSF1-ATF1 interaction": {"molecular_target": "T1, HSF1-ATF1 interaction (Homo sapiens, UniProt Q00613)", "T1 construct": "expressed in transfected cells; host or cells: HeLa-derived cell line stably expressing HSF1-FLAG", "T1 sequence (Q00613 whole entry)": "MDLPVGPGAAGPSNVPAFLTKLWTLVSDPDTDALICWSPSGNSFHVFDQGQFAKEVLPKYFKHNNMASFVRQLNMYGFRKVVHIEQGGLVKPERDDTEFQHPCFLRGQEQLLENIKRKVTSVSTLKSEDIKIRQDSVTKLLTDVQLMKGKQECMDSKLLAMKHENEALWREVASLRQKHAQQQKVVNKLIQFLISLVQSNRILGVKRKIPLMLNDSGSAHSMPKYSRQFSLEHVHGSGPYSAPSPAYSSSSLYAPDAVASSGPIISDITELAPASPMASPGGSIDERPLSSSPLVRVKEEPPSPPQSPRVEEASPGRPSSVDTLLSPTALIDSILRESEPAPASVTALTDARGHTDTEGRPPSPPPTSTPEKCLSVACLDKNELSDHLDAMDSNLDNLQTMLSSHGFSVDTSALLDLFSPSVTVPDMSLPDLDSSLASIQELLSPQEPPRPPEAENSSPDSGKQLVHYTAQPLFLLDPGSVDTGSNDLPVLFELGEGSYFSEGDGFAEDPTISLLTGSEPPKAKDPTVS", "experiment": "Anti-FLAG immunoprecipitation of FLAG-tagged HSF1 and WB (HSF1-ATF1 interaction)", "format": "cell-based", "conditions": "HeLa-derived line expressing FLAG-tagged HSF1, heat-treated 30 min at 43° C.", "source_text": "Recruitment of HSF1 to target promoters in response to a stress is mediated by ATF1/CREB. Takii, R. et al. (2015) Mol. Cell. Biol. 35: 11-25. ATF1/CREB regulates the stress-induced HSF1 transcription complex that includes BRG1 chromatin-remodeling complex and p300/CBP. The former complex promotes an active chromatin state in the promoters, whereas p300/CBP accelerates the shutdown of HSF1 DNA-binding activity as well as stabilizes HSF1 against proteasomal degradation during recovery from stress. To assess the effects of the IHSF on the assembly of the transcription complex, use was made of a HeLa-derived cell line that stably expresses a C-terminally FLAG-tagged HSF1. Cultures were heat-treated for 30 min at 43° C. in the presence or absence of IHSF 115, extracts were prepared, and tagged HSF1 was immunoprecipitated using an anti-FLAG antibody."}, "HeLa cells [1]": {"system": "HeLa cells", "experiment": "Flow cytometric analysis of DNA (sub-G0/G1 fraction)", "format": "cell-based, human", "conditions": "12.5 or 25 μM for up to 24 h", "method": "(§1) FIG. 6. (A) HeLa cell cultures were mock-exposed (−) or exposed to the indicated concentrations of compound 115 for 24 (left panel) or 96 (right panel) hours. Cell viability of total cultures, floating cells and attached cells was assayed using an Alamar Blue assay. (B) HeLa cell cultures were mock-exposed (−) or exposed to the indicated concentrations of compound 115 for 15-96 hours. Trypan Blue dye exclusion was employed to determine numbers of live cells (left panel) and relative levels of necrotic cells (right panel). (C) HeLa cell cultures were mock-exposed (−) or exposed to the indicated concentrations of compound 115 for 6 and 24 h. Shown are relative levels of early apoptotic cells (annexin-positive, 7 aminoactinomycin D-negative). (D) Flow cytometric analysis of DNA of HeLa cell cultures mock-exposed (−) or exposed to the indicated concentrations of compound 115 for 6, 15 and 24 hours. Relative levels of apoptotic cells are indicated.\n(§2) Further studies were aimed at finding out whether IHSF-exposed cancer cells were only growth-arrested or were actually killed and, if they were killed, by what mechanism. […] The viability signal (in whole cultures and, more dramatically, when only attached cells were analyzed) decreased as a function of IHSF concentration. […] Stained (necrotic) and unstained (live) cells were counted (FIG. 6B). […]"}, "HeLa cells [2]": {"system": "HeLa cells", "experiment": "Annexin V/7 aminoactinomycin D double staining assay", "format": "cell-based, human", "conditions": "25 μM for up to 24 hours", "method": "as §1, §2"}, "PC-3 tumor xenograft": {"system": "PC-3 tumor xenograft", "experiment": "Human prostate cancer PC-3 xenograft model in athymic mice", "format": "in vivo", "conditions": "for tumor growth: period of daily administration (7 days)", "method": "Prostate cancer cell line PC-3 was obtained from ATTC and grown in tissue culture under standard conditions. Groups (8 animals) of athymic mice (6-7 weeks old, male, obtained from Harlan) were inoculated subcutaneously on the right flank with 5×10^6 PC-3 cells. Cells were administered as a 1:1 mixture of cells in medium and Matrigel. Treatment was initiated when tumor size reached about 200 mg, at which time the mice were randomized. Of the various groups in the experiment, one group received a daily intravenous dose (via the tail vein) of 2 mg IHSF 115 in an aqueous solution of Kleptose HPB (see Example 2.1) for 7 days, followed by additional dosing with 2 mg IHSF 115 every other day. Another group received a daily dose of 0.8 mg IHSF 115 in an aqueous solution of Kleptose HPB (see Example 2.1) for 7 days, followed by additional dosing with 0.8 mg IHSF 115 every other day. A control group was subjected to same regimen, administering vehicle (Kleptose HPB solution) only. Tumor size and weight were assessed periodically and recorded. Tumor size was estimated using calipers. Calculation: tumor weight (mg)=(a×b^2/2) where ‘b’ is the smallest diameter and ‘a’ is the largest diameter. […] Loss of weight for the period was less than 4%."}}, "data": [{"smiles": "CN(C(=O)/C=C/C1=NCCCO1)c1ncc(-c2cccnc2)s1", "note": "[IHSF 115, (E)-3-(5,6-Dihydro-4H-[1,3]oxazin-2-yl)-N-methyl-N-(5-pyridin-3-yl-thiazol-2-yl)-acrylamide]", "values": [{"measurement": "HSF1-ATF1 interaction (co-immunoprecipitation, WB)", "setting": "HSF1-ATF1 interaction", "value": "dramatically reduced"}, {"measurement": "sub-G0/G1 fractions (% of cells included)", "setting": "HeLa cells [1]", "value": "≤ 6", "unit": "%"}, {"measurement": "live cells annexin V-stained", "setting": "HeLa cells [2]", "value": "no more than 15%"}, {"measurement": "tumor growth", "setting": "PC-3 tumor xenograft; 0.8 mg daily dose in aqueous Kleptose HPB", "value": "smaller effect"}, {"measurement": "tumor growth", "setting": "PC-3 tumor xenograft; 2 mg daily intravenous in aqueous Kleptose HPB", "value": "substantial (and statistically significant) reduction in tumor growth"}, {"measurement": "toxicity", "setting": "PC-3 tumor xenograft; athymic mice, intravenous via the tail vein", "value": "No toxicity was observed, except for some local swelling in the inoculation region"}, {"measurement": "Loss of weight for the period", "setting": "PC-3 tumor xenograft; period of daily administration", "value": "less than 4%"}]}]}
